How the values were obtained:
[1] = biological target: T1, human cloned CHRM4 receptor (Homo sapiens, UniProt P08173); test: CHRM4 Ca++ Flux Assay (M4_CHO cells, agonist mode); format: cell-based; details: for Emax: Percent Activity (PA), read-out: M4 FDSS PA %; for EC50: geometric mean if tested more than once, read-out: M4 FDSS EC50
T1 construct: expressed in transfected cells; host or cells: CHO-K1 (M4_CHO)
T1 sequence (P08173 1-479): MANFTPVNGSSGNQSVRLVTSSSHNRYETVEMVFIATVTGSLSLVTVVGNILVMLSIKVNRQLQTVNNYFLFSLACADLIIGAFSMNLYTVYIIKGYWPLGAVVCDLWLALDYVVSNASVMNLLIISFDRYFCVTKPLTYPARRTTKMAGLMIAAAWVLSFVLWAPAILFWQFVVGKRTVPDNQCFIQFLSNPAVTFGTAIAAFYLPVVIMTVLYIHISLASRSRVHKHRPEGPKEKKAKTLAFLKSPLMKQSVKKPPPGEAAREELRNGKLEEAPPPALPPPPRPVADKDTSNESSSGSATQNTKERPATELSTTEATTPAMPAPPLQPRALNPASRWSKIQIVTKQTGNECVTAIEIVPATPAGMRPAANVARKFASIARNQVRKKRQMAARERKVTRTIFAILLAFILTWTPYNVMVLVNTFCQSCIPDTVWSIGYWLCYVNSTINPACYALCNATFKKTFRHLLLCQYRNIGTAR
Summary of the method: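 CHO-K1 cells stably expressing human M4 were dye-loaded, then held 60 min at RT in Ca/Mg-free HBSS buffer with 20 μM ATP. Ca++ traces were recorded over 3 min after an 11-point compound series in triplicate, agonist mode, with a four-parameter fit. Percent activity is relative to the carbachol EC100; repeat tests are geometric means.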

[2] = biological target: T2, human cloned CHRM3 receptor (Homo sapiens, UniProt P20309); test: CHRM3 Ca++ Flux Assay (M3_CHO cells, agonist mode); format: cell-based; details: for Emax: Percent Activity (PA) measured to EC100 of Carbachol, read-out: M3 FDSS PA %; for EC50: agonist mode, geometric mean if tested more than once, read-out: M3 FDSS EC50
T2 construct: expressed in transfected cells; host or cells: CHO-K1 (M3_CHO)
Summary of the method: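 CHO-K1 cells stably expressing human M3 or M5 receptor, dye-loaded ≥1 h, treated with 11-point compound doses in triplicate; Ca++ flux read over 3 min (FDSS). Agonist-mode four-parameter fit; percent activity relative to carbachol EC100; repeat tests reported as geometric mean.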

T2 sequence (P20309 whole entry): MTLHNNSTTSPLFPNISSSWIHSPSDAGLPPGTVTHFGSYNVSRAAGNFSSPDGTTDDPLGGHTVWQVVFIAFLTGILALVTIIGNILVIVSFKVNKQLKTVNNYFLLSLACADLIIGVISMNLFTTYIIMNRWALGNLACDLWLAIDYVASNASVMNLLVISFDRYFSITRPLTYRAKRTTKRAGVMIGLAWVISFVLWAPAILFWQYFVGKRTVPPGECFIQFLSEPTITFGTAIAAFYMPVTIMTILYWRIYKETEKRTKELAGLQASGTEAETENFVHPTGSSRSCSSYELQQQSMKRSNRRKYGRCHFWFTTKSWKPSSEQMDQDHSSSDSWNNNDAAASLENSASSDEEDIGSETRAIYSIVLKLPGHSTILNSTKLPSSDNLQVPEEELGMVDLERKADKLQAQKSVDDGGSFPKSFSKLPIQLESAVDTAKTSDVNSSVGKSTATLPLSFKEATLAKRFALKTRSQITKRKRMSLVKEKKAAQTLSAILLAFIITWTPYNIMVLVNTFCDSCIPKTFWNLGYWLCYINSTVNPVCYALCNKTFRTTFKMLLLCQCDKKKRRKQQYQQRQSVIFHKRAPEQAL

Emax [1] [%] | EC50 [1] [nM] | Emax [2] [%] | EC50 [2] [nM] | Structure (SMILES)
82 | 8 | 0 | > 25000 | Fc1ccc(OC2COC2)c(C2CCN([C@@H]3COC4(C3)CN(c3nnco3)C4)CC2)c1 [Example 1A, (S)-7-(4-(5-fluoro-2-(oxetan-3-yloxy)phenyl)piperidin-1-yl)-2-(1,3,4-oxadiazol-2-yl)-5-oxa-2-azaspiro[3.4]octane]
69 | 35 | 0 | > 25000 | Fc1ccc(OC[C@H]2CCOC2)c(C2CCN([C@@H]3COC4(C3)CN(c3nnco3)C4)CC2)c1 [Example 1I, (S)-7-(4-(5-fluoro-2-(((S)-tetrahydrofuran-3-yl)methoxy)phenyl)piperidin-1-yl)-2-(1,3,4-oxadiazol-2-yl)-5-oxa-2-azaspiro[3.4]octane]
79 | 86 | 0 | > 25000 | Fc1ccc(OCC2CCOCC2)c(C2CCN([C@@H]3COC4(C3)CN(c3nnco3)C4)CC2)c1 [Example 1J, (S)-7-(4-(5-fluoro-2-((tetrahydro-2H-pyran-4-yl)methoxy)phenyl)piperidin-1-yl)-2-(1,3,4-oxadiazol-2-yl)-5-oxa-2-azaspiro[3.4]octane]
74 | 99 | 0 | > 25000 | COCCOc1ccc(F)cc1C1CCN([C@@H]2COC3(C2)CN(c2nnco2)C3)CC1 [Example 1L, (S)-7-(4-(5-fluoro-2-(2-methoxyethoxy)phenyl)piperidin-1-yl)-2-(1,3,4-oxadiazol-2-yl)-5-oxa-2-azaspiro[3.4]octane]
79 | 94 | 0 | > 25000 | Fc1ccc(OC2COCOC2)c(C2CCN([C@@H]3COC4(C3)CN(c3nnco3)C4)CC2)c1 [Example 1M, (S)-7-(4-(2-((1,3-dioxan-5-yl)oxy)-5-fluorophenyl)piperidin-1-yl)-2-(1,3,4-oxadiazol-2-yl)-5-oxa-2-azaspiro[3.4]octane]
63 | 133 | 0 | > 25000 | CC(C)(O)CCOc1ccc(F)cc1C1CCN([C@@H]2COC3(C2)CN(c2nnco2)C3)CC1 [Example 1N, (S)-4-(2-(1-(2-(1,3,4-oxadiazol-2-yl)-5-oxa-2-azaspiro[3.4]octan-7-yl)piperidin-4-yl)-4-fluorophenoxy)-2-methylbutan-2-ol]
89 | 26 | 0 | > 25000 | c1ccc(C2CCN([C@@H]3COC4(C3)CN(c3nnco3)C4)CC2)c(O[C@@H]2CCOC2)c1 [Example 1O, (S)-2-(1,3,4-oxadiazol-2-yl)-7-(4-(2-(((R)-tetrahydrofuran-3-yl)oxy)phenyl)piperidin-1-yl)-5-oxa-2-azaspiro[3.4]octane]
94 | 28 | 0 | > 25000 | c1ccc(C2CCN([C@@H]3COC4(C3)CN(c3nnco3)C4)CC2)c(OC2COC2)c1 [Example 1P, (S)-2-(1,3,4-oxadiazol-2-yl)-7-(4-(2-(oxetan-3-yloxy)phenyl)piperidin-1-yl)-5-oxa-2-azaspiro[3.4]octane]
79 | 52 | 0 | > 25000 | COc1ccccc1C1CCN([C@@H]2COC3(C2)CN(c2nnco2)C3)CC1 [Example 1Q, (S)-7-(4-(2-methoxyphenyl)piperidin-1-yl)-2-(1,3,4-oxadiazol-2-yl)-5-oxa-2-azaspiro[3.4]octane]
77 | 41 | 0 | > 25000 | Fc1cc(O[C@@H]2CCOC2)c(C2CCN([C@@H]3COC4(C3)CN(c3nnco3)C4)CC2)cc1F [Example 1R, (S)-7-(4-(4,5-difluoro-2-(((R)-tetrahydrofuran-3-yl)oxy)phenyl)piperidin-1-yl)-2-(1,3,4-oxadiazol-2-yl)-5-oxa-2-azaspiro[3.4]octane]
68 | 79 | 0 | > 25000 | COc1cc(F)ccc1C1CCN([C@@H]2COC3(C2)CN(c2nnco2)C3)CC1 [Example 1S, (S)-7-(4-(4-fluoro-2-methoxyphenyl)piperidin-1-yl)-2-(1,3,4-oxadiazol-2-yl)-5-oxa-2-azaspiro[3.4]octane]
45 | 157 | 0 | > 25000 | CC(C)(O)CCOc1cc(F)ccc1C1CCN([C@@H]2COC3(C2)CN(c2nnco2)C3)CC1 [Example 1T, (S)-4-(2-(1-(2-(1,3,4-oxadiazol-2-yl)-5-oxa-2-azaspiro[3.4]octan-7-yl)piperidin-4-yl)-5-fluorophenoxy)-2-methylbutan-2-ol]
73 | 90 | 0 | > 25000 | CC(C)(O)COc1ccc(F)cc1C1CCN([C@@H]2COC3(C2)CN(c2nnco2)C3)CC1 [Example 1U, (S)-1-(2-(1-(2-(1,3,4-oxadiazol-2-yl)-5-oxa-2-azaspiro[3.4]octan-7-yl)piperidin-4-yl)-4-fluorophenoxy)-2-methylpropan-2-ol]
83 | 35 | 0 | > 25000 | COc1ccc(F)cc1C1CCN([C@@H]2COC3(C2)CN(c2nnco2)C3)CC1 [Example 1V, (S)-7-(4-(5-fluoro-2-methoxyphenyl)piperidin-1-yl)-2-(1,3,4-oxadiazol-2-yl)-5-oxa-2-azaspiro[3.4]octane]
89 | 12 | 0 | > 25000 | c1ccc(C2CCN([C@@H]3COC4(C3)CN(c3nnco3)C4)CC2)c(-c2cncnc2)c1 [Example 1W, (S)-2-(1,3,4-oxadiazol-2-yl)-7-(4-(2-(pyrimidin-5-yl)phenyl)piperidin-1-yl)-5-oxa-2-azaspiro[3.4]octane]
84 | 112 | 0 | > 25000 | c1ccc(C2CCN([C@@H]3COC4(C3)CN(c3nnco3)C4)CC2)c(-c2ncco2)c1 [Example 1X, (S)-2-(1,3,4-oxadiazol-2-yl)-7-(4-(2-(oxazol-2-yl)phenyl)piperidin-1-yl)-5-oxa-2-azaspiro[3.4]octane]
86 | 112 | 0 | > 25000 | Cc1nnc(-c2ccccc2C2CCN([C@@H]3COC4(C3)CN(c3nnco3)C4)CC2)o1 [Example 1Y, (S)-7-(4-(2-(5-methyl-1,3,4-oxadiazol-2-yl)phenyl)piperidin-1-yl)-2-(1,3,4-oxadiazol-2-yl)-5-oxa-2-azaspiro[3.4]octane]
79 | 24 | 0 | > 25000 | Fc1ccc(OCC2COC2)c(C2CCN([C@@H]3COC4(C3)CN(c3nncs3)C4)CC2)c1 [Example 2A, (S)-7-(4-(5-fluoro-2-(oxetan-3-ylmethoxy)phenyl)piperidin-1-yl)-2-(1,3,4-thiadiazol-2-yl)-5-oxa-2-azaspiro[3.4]octane]

Structure (SMILES) | Emax [1] [%] | EC50 [1] [nM] | Emax [2] [%] | EC50 [2] [nM]
COC(C)(C)CCOc1ccc(F)cc1C1CCN([C@@H]2COC3(C2)CN(c2nnco2)C3)CC1 [Example 1K, (S)-7-(4-(5-fluoro-2-(3-methoxy-3-methylbutoxy)phenyl)piperidin-1-yl)-2-(1,3,4-oxadiazol-2-yl)-5-oxa-2-azaspiro[3.4]octane] | 58 | 97 | 0 | > 25000

Source: patent US11485742B2, “2-azaspiro[3.4]octane derivatives as M4 agonists” (NOVARTIS AG, priority 2019, dated 2022)
